# Source: patent EP4799701A2, “PYRIMID-2-YL-PYRAZOLE COMPOUNDS AS IRAK INHIBITORS” (Rigel Pharmaceuticals, Inc., priority 2022, dated 2023)
# Experiments:
# Assay type in all cases: cell-based
# [1] = test system: TLR4-induced IL-23; assay: IL23-p19 ELISA, dendritic cells (PBMC-derived), LPS stimulated; settings: human primary dendritic cells (DC); result in words
# Procedure: Compound Screening Using DC Cells
# • Human PBMC cells (All Cells, Cat No. PB002) • RPMI growth media containing 10% FBS • IFNγ (Peprotech, Cat No. 300-02) • GMCSF (Peprotech, Cat No. 300-03) and IL4 (Peprotech Cat No. 200-04) • White clear bottom 96 well plates (Fisher, Cat No. 07-200-587, Corning #3903) • LPS (Make 2.5 mg/ml Stock in PBS) from Sigma Aldrich (Cat No. L2018-5MG) • Cell Titer Glo reagent (Promega, Cat No. G7573) • Positive controls, IKK2VI inhibitor (Calbiochem, Cat No. 401483)
# Human PBMC cells (400 million) obtained from the vendor were transferred into a T-175 flask containing 15 ml RPMI media (10% FBS) and incubate for 2 hours at 37 °C. […]
# 155 µl of the supernatant was harvested from each well carefully (without the tip touching the bottom of the well) and to the remaining 50 µl / well of the cell culture plate was added 50 µl of Cell Titer Glo reagent. The mixture was incubated for 1-2 minutes on a shaker and the plate was read for luminescence intensity to determine the compound cytotoxicity. […]
# After 45 minutes, the plates were washed with TBST 4X and 100 ul / well Super Signal ELISA Pico Chemiluminescent Substrate from Pierce (3.5 ml A + 3.5 ml B + 3.5 ml MQ water) was added. The plates were shaken for 1-2 minutes then read on a plate reader. […]
# [2] = test system: TLR4-induced IL-23 and TNF-α; assay: TLR4 induced TNF-α in THP-1 cells; settings: human THP-1 cells; result in words
# Procedure: Assay Protocol: TLR4 and TLR2 induced cytokines in THP-1 cells. […]
# THP-1 cells (100K in 100 µL/well) were primed with 25 ng/mL IFN-γ for 18 hours at 37°C, 5% CO2. […] IL-23p 19 or TNF-α protein in the supernatant were measured by sandwich ELISA. […] The plates were read with a luminometer, and the chemiluminescence values were entered into Athena (Rigel) for curve fitting, EC50 calculation, and database storage.
# [3] = test system: TLR4-dependent; assay: TLR4-dependent cytokine production in mouse macrophages; settings: result in words
smiles,measurement,setting,value
"CCO[C@H]1CC[C@H](n2cc(NC(=O)c3csc(-c4cn[nH]c4)n3)c(-c3ncccn3)n2)CC1 [Compound I-1, N-(1-((1r,4r)-4-ethoxycyclohexyl)-3-(pyrimidin-2-yl)-1H-pyrazol-4-yl)-2-(1H-pyrazol-4-yl)thiazole-4-carboxamide]",TLR4-induced IL-23 production,[1],blocks
same,TLR4-induced TNF-α production,[2],inhibits
same,TLR4-dependent cytokine production,[3],potent inhibitor
